Data on five compounds can be found in ChEMBL document CHEMBL1150498, “Novel derivatives of pseudomonic acid” (Bioorg Med Chem Lett, 1997).

Values after ≈ are worked out from the molar mass of the structure shown.

For the assay, the system named is Staphylococcus aureus. In words: Compound was evaluated for inhibitory activity against Staphylococcus aureus ATCC 6538P. It is filed as functional.
`CCCCS(=O)(=O)N[C@H]1CO[C@@H](C/C=C/C(=O)OCCCCCCCCC(=O)OC)[C@H](O)[C@@H]1O` returned an MIC above 100 mg/L.
Take `CCCS(=O)(=O)N[C@H]1CO[C@@H](C/C=C/C(=O)OCCCCCCCCC(=O)OC)[C@H](O)[C@@H]1O`: the MIC is above 100 mg/L.
`COC(=O)CCCCCCCCOC(=O)/C=C/C[C@@H]1OC[C@H](NS(C)(=O)=O)[C@@H](O)[C@H]1O` yielded an MIC above 100 mg/L.
Then `COC(=O)CCCCCCCCOC(=O)/C=C/C[C@@H]1OC[C@H](NS(=O)(=O)c2cccc(Cl)c2)[C@@H](O)[C@H]1O`, with 25 mg/L (≈ 44.5 µM); and `COC(=O)CCCCCCCCOC(=O)/C=C/C[C@@H]1OC[C@H](NS(=O)(=O)CCCCl)[C@@H](O)[C@H]1O`, with 50 mg/L (≈ 94.7 µM).
